Results on 34 compounds are retold here after patent publication USRE47141E1, “Methods of treating fibrosis, cancer and vascular injuries” (EWHA University—Industry Collaboration Foundation, priority 2010, dated 2018).

Structures are written as SMILES. pIC50: −log10 of the molar value.

The first assay deals with ALK5 (Homo sapiens (Human), UniProt P36897). As to the kind of experiment: Cell-free assay for inhibition of ALK5 kinase phosphorylation. In kind it is biochemical.
ALK5, sequence (P36897 34-503): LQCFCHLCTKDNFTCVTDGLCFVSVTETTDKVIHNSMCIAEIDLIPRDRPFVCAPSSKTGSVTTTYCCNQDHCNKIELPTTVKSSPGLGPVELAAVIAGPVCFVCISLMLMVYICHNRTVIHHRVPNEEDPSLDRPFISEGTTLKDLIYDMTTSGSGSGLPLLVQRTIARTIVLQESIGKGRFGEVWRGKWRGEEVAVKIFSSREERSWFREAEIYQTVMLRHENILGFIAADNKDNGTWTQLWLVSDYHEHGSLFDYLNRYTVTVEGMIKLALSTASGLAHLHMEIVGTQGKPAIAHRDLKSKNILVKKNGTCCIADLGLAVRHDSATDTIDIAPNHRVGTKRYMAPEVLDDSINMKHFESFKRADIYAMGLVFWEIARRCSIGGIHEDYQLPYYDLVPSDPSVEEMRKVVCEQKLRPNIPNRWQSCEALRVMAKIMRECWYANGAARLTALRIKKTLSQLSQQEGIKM
Details: not given
Usually pIC50 stands for −log10 of the IC50, conventionally taken in molar units. `Cc1cccc(-c2[nH]c(CNc3ccccc3C#N)nc2-c2ccc3ncnn3c2)n1` [Example 59, 2-((4-([1,2,4]triazolo[1,5-a]pyridin-6-yl)-5-(6-methylpyridin-2-yl)-1H-imidazol-2-yl)methylamino)benzonitrile] showed a pIC50 of 7.71.

The same assay, now with this note: read-out: IC50 on ALK5 kinase phosphorylation.
As for `CCc1cccc(-c2[nH]c(CNc3cccc(C#N)c3)nc2-c2ccc3ncnn3c2)n1` [Example 138, 3-((4-([1,2,4]triazolo[1,5-a]pyridin-6-yl)-5-(6-ethylpyridin-2-yl)-1H-imidazol-2-yl)methylamino)benzonitrile], the negative-log IC50 (pIC50) was 8.03.

`Cc1cccc(-c2[nH]c(CNc3ccc(F)cc3)nc2-c2ccc3ncnn3c2)n1` [Example 6, N-((4-([1,2,4]triazolo[1,5-a]pyridin-6-yl)-5-(6-methylpyridin-2-yl)-1H-imidazol-2-yl)methyl)-4-fluoroaniline]: the pIC50 is 7.76.

Consider `Cc1cccc(-c2[nH]c(CNc3ccc(CC#N)cc3)nc2-c2ccc3ncnn3c2)n1` [Example 69, 2-(4-((4-([1,2,4]triazolo[1,5-a]pyridin-6-yl)-5-(6-methylpyridin-2-yl)-1H-imidazol-2-yl)methylamino)phenyl)acetonitrile], for which the negative logarithm of the IC50 (pIC50) is 7.61. Same read-out and setting: as for `Cc1cccc(-c2[nH]c(CNc3cccc(C#N)c3)nc2-c2ccc3ncnn3c2)n1` [Example 60, 3-((4-([1,2,4]triazolo[1,5-a]pyridin-6-yl)-5-(6-methylpyridin-2-yl)-1H-imidazol-2-yl)methylamino)benzonitrile], the figure is 8.32; as for `CC(=O)Nc1cccc(NCc2nc(-c3ccc4ncnn4c3)c(-c3cccc(C)n3)[nH]2)c1` [Example 75, N-(3-((4-([1,2,4]triazolo[1,5-a]pyridin-6-yl)-5-(6-methylpyridin-2-yl)-1H-imidazol-2-yl)methylamino)phenyl)acetamide], 7.81; as for `COc1cc(NCc2nc(-c3ccc4ncnn4c3)c(-c3cccc(C)n3)[nH]2)cc(OC)c1` [Example 47, N-((4-([1,2,4]triazolo[1,5-a]pyridin-6-yl)-5-(6-methylpyridin-2-yl)-1H-imidazol-2-yl)methyl)-3,5-dimethoxyaniline], 7.84. With `Cc1cccc(-c2[nH]c(CNc3ccc(F)c(F)c3)nc2-c2ccc3ncnn3c2)n1` [Example 8, N-((4-([1,2,4]triazolo[1,5-a]pyridin-6-yl)-5-(6-methylpyridin-2-yl)-1H-imidazol-2-yl)methyl)-3,4-difluoroaniline], the pIC50 is 8.01.

On to `Cc1cccc(-c2[nH]c(CNc3ccc(C(C)C)cc3)nc2-c2ccc3ncnn3c2)n1` [Example 35, N-((4-([1,2,4]triazolo[1,5-a]pyridin-6-yl)-5-(6-methylpyridin-2-yl)-1H-imidazol-2-yl)methyl)-4-isopropylaniline], for which the pIC50 is 7.34. On the same count and under the same terms, as for `Cc1cccc(-c2[nH]c(CN(C)c3cccc(C(N)=O)c3)nc2-c2ccc3ncnn3c2)n1` [Example 142], the figure is 6.82; as for `COCc1ccccc1NCc1nc(-c2ccc3ncnn3c2)c(-c2cccc(C)n2)[nH]1` [Example 48, N-((4-([1,2,4]triazolo[1,5-a]pyridin-6-yl)-5-(6-methylpyridin-2-yl)-1H-imidazol-2-yl)methyl)-2-(methoxymethyl)aniline], 7.62; as for `Cc1cccc(-c2[nH]c(COc3ccccc3)nc2-c2ccc3ncnn3c2)n1` [Example 148, 6-(5-(6-methylpyridin-2-yl)-2-(phenoxymethyl)-1H-imidazol-4-yl)-[1,2,4]triazolo[1,5-a]pyridine], 7.88. Still for that read-out and setting: the figure for `CC(=O)c1ccc(NCc2nc(-c3ccc4ncnn4c3)c(-c3cccc(C)n3)[nH]2)cc1` [Example 71, 1-(4-((4-([1,2,4]triazolo[1,5-a]pyridin-6-yl)-5-(6-methylpyridin-2-yl)-1H-imidazol-2-yl)methylamino)phenyl)ethanone] is 7.23; for `CCc1ccccc1NCc1nc(-c2ccc3ncnn3c2)c(-c2cccc(C)n2)[nH]1` [Example 30, N-((4-([1,2,4]triazolo[1,5-a]pyridin-6-yl)-5-(6-methylpyridin-2-yl)-1H-imidazol-2-yl)methyl)-2-ethylaniline] it is 7.97; for `COCc1cccc(NCc2nc(-c3ccc4ncnn4c3)c(-c3cccc(C)n3)[nH]2)c1` [Example 49, N-((4-([1,2,4]triazolo[1,5-a]pyridin-6-yl)-5-(6-methylpyridin-2-yl)-1H-imidazol-2-yl)methyl)-3-(methoxymethyl)aniline] it is 7.82.

For the compound `Cc1cccc(-c2[nH]c(CNc3cccc(CC#N)c3)nc2-c2ccc3ncnn3c2)n1` [Example 68, 2-(3-((4-([1,2,4]triazolo[1,5-a]pyridin-6-yl)-5-(6-methylpyridin-2-yl)-1H-imidazol-2-yl)methylamino)phenyl)acetonitrile], the pIC50 is 7.96. Same read-out and setting: as for `Cc1cccc(-c2[nH]c(CNc3cccc(C#N)c3C#N)nc2-c2ccc3ncnn3c2)n1` [Example 64, 3-((4-([1,2,4]triazolo[1,5-a]pyridin-6-yl)-5-(6-methylpyridin-2-yl)-1H-imidazol-2-yl)methylamino)phthalonitrile], the figure is 7.69; as for `Cc1cccc(-c2[nH]c(Cc3ccccc3)nc2-c2ccc3ncnn3c2)n1` [Example 143, 6-(2-benzyl-5-(6-methylpyridin-2-yl)-1H-imidazol-4-yl)-[1,2,4]triazolo[1,5-a]pyridine], 7.70. Take `Cc1cccc(-c2[nH]c(COc3cccc(C(N)=O)c3)nc2-c2ccc3ncnn3c2)n1` [Example 151, 3-((4-([1,2,4]triazolo[1,5-a]pyridin-6-yl)-5-(6-methylpyridin-2-yl)-1H-imidazol-2-yl)methoxy)benzamide]: the pIC50 is 7.65. For the compound `Cc1cccc(-c2[nH]c(CN(C)c3ccccc3F)nc2-c2ccc3ncnn3c2)n1` [Example 140, N-((4-([1,2,4]triazolo[1,5-a]pyridin-6-yl)-5-(6-methylpyridin-2-yl)-1H-imidazol-2-yl)methyl)-2-fluoro-N-methylaniline], the pIC50 is 7.30. With `C=Cc1ccc(NCc2nc(-c3ccc4ncnn4c3)c(-c3cccc(C)n3)[nH]2)cc1` [Example 40, N-((4-([1,2,4]triazolo[1,5-a]pyridin-6-yl)-5-(6-methylpyridin-2-yl)-1H-imidazol-2-yl)methyl)-4-vinylaniline], the pIC50 was 7.53. Regarding `Cc1cccc(-c2[nH]c(CNc3cccc(NS(C)(=O)=O)c3)nc2-c2ccc3ncnn3c2)n1` [Example 78, N-(3-((4-([1,2,4]triazolo[1,5-a]pyridin-6-yl)-5-(6-methylpyridin-2-yl)-1H-imidazol-2-yl)methylamino)phenyl)methanesulfonamide], the pIC50 is 7.82. Still for that read-out and setting: the figure for `COc1ccc(NCc2nc(-c3ccc4ncnn4c3)c(-c3cccc(C)n3)[nH]2)cc1` [Example 44, N-((4-([1,2,4]triazolo[1,5-a]pyridin-6-yl)-5-(6-methylpyridin-2-yl)-1H-imidazol-2-yl)methyl)-4-methoxyaniline] is 7.32.

Take `COc1ccccc1NCc1nc(-c2ccc3ncnn3c2)c(-c2cccc(C)n2)[nH]1` [Example 42, N-((4-([1,2,4]triazolo[1,5-a]pyridin-6-yl)-5-(6-methylpyridin-2-yl)-1H-imidazol-2-yl)methyl)-2-methoxyaniline]: the pIC50 is 7.84. On to `Cc1cccc(-c2[nH]c(CNc3ccc(C#N)cc3)nc2-c2ccc3ncnn3c2)n1` [Example 63, 4-((4-([1,2,4]triazolo[1,5-a]pyridin-6-yl)-5-(6-methylpyridin-2-yl)-1H-imidazol-2-yl)methylamino)benzonitrile], for which the negative-log IC50 (pIC50) was 7.49. Same read-out and setting: as for `Cc1cccc(-c2[nH]c(CNc3cccc(C(C)C)c3)nc2-c2ccc3ncnn3c2)n1` [Example 34, N-((4-([1,2,4]triazolo[1,5-a]pyridin-6-yl)-5-(6-methylpyridin-2-yl)-1H-imidazol-2-yl)methyl)-3-isopropylaniline], the figure is 7.79.

Consider `Cc1cccc(-c2[nH]c(CNc3ccc(C(N)=O)cc3)nc2-c2ccc3ncnn3c2)n1` [Example 67, 4-((4-([1,2,4]triazolo[1,5-a]pyridin-6-yl)-5-(6-methylpyridin-2-yl)-1H-imidazol-2-yl)methylamino)benzamide], for which the pIC50 was 7.26. Turning to `Cc1cccc(-c2[nH]c(CN(C)c3cccc(C#N)c3)nc2-c2ccc3ncnn3c2)n1` [Example 141], the negative-log IC50 (pIC50) is 6.93. The same measure, in the same setting: as for `Cc1cccc(-c2[nH]c(COc3ccccc3F)nc2-c2ccc3ncnn3c2)n1` [Example 149, 6-(2-((2-fluorophenoxy)methyl)-5-(6-methylpyridin-2-yl)-1H-imidazol-4-yl)-[1,2,4]triazolo[1,5-a]pyridine], the figure is 7.60; as for `Cc1cccc(-c2[nH]c(CNc3cccc(C)c3C)nc2-c2ccc3ncnn3c2)n1` [Example 27, N-((4-([1,2,4]triazolo[1,5-a]pyridin-6-yl)-5-(6-methylpyridin-2-yl)-1H-imidazol-2-yl)methyl)-2,3-dimethylaniline], 7.74.

Consider `Cc1cccc(-c2[nH]c(CNc3cccc(Br)c3)nc2-c2ccc3ncnn3c2)n1` [Example 20, N-((4-([1,2,4]triazolo[1,5-a]pyridin-6-yl)-5-(6-methylpyridin-2-yl)-1H-imidazol-2-yl)methyl)-3-bromoaniline], for which the pIC50 is 8.34. Regarding `CC(=O)Nc1ccccc1NCc1nc(-c2ccc3ncnn3c2)c(-c2cccc(C)n2)[nH]1` [Example 74, N-(2-((4-([1,2,4]triazolo[1,5-a]pyridin-6-yl)-5-(6-methylpyridin-2-yl)-1H-imidazol-2-yl)methylamino)phenyl)acetamide], the pIC50 was 7.40. The same measure, in the same setting: the figure for `Cc1cccc(-c2[nH]c(CNc3ccccc3C)nc2-c2ccc3ncnn3c2)n1` [Example 23, N-((4-([1,2,4]triazolo[1,5-a]pyridin-6-yl)-5-(6-methylpyridin-2-yl)-1H-imidazol-2-yl)methyl)-2-methylaniline] is 7.86; for `COc1cccc(NCc2nc(-c3ccc4ncnn4c3)c(-c3cccc(C)n3)[nH]2)c1OC` [Example 45, N-((4-([1,2,4]triazolo[1,5-a]pyridin-6-yl)-5-(6-methylpyridin-2-yl)-1H-imidazol-2-yl)methyl)-2,3-dimethoxyaniline] it is 7.24.
